The source of these data is publication PMC6143438, “Chlorogenic and phenolic acids are only very weak inhibitors of human salivary α-amylase and rat intestinal maltase activities” (Food Research International (Ottawa, Ont.), 2018).

Structures are written as SMILES.

Test [1] deals with T1, human salivary α-amylase (Homo sapiens, UniProt P0DUB6).
T1 construct: gene AMY1A; human salivary α-amylase type IX-A (Sigma-Aldrich)
T1 sequence (P0DUB6 16-511): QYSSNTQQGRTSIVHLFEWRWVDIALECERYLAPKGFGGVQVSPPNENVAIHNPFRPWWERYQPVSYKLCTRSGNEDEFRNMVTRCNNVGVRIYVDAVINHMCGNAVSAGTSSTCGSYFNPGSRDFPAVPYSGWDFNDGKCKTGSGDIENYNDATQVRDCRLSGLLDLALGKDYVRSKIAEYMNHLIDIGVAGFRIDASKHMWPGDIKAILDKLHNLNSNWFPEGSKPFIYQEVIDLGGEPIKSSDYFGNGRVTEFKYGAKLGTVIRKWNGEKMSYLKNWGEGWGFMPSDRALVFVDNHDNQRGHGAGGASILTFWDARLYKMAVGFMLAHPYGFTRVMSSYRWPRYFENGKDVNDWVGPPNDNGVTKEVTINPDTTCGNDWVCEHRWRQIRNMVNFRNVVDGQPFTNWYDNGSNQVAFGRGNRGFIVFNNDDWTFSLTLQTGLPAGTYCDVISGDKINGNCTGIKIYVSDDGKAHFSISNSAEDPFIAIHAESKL
The test can be described thus: enzyme inhibition with amylose substrate, DNS readout after SPE; plateau at […] inhibition at […]. It is filed as biochemical.

Test [2] concerns the target T1, human salivary α-amylase. The test can be described thus: enzyme inhibition with amylose substrate, DNS readout after SPE; very weak. The format is biochemical.

By inhibition is commonly meant the percentage by which the read-out fell short of the control. Low values mean a weak effect, high ones a strong effect. For the compound `COc1ccc(C=CC(=O)O)cc1OC` [3,4-dimethoxycinnamic acid], the inhibition at 600 µM on human salivary α-amylase [1] amounted to 32%.

For `O=C(/C=C/c1ccc(O)c(O)c1)O[C@@H]1C[C@](O)(C(=O)O)C[C@@H](O)[C@H]1O` [5-CQA, 5-caffeoylquinic acid], at human salivary α-amylase [2], testing at 5000 µM gave an inhibition of 20.5%.
